≈ marks a conversion by molar mass, not a printed value. One block for each molecule: values may come before it.
Experiments:
[1] = Pharmacokinetic profile, rat assay (IV); assay type: in vivo; details: plasma
Description: The pharmacokinetic profiles of compounds are determined by measuring the compound concentration in plasma by LC/MS/MS following a single intravenous or peroral administration of the compounds at a dose of 1 or 3 mg/kg individually or in a cassette of up to 5 compounds. The concentrations are described as the mean plasma concentrations at each time point from three animals. Intravenous dose formulation is administered as a single bolus dose through the tail vein. Oral dose formulation is administered to animals by an oral gavage needle. In both cases the dose volume is 5.0 mL/kg. Blood is collected from rats using a jugular vein catheter and from anesthetized mice through a capillary guided into the retro-orbital plexus. The collected blood is then centrifuged to obtain plasma and the compounds extracted into methanol prior to determining the compound concentration by LC/MS/MS.
The pharmacokinetic profiles of selected compounds of the invention were compared directly with their primary alcohol analogues, Compounds A and B below, in the rat assay (IV).

S. pneumoniae ATCC6301 = experiment: Mouse survival model (lung infection); assay type: in vivo; details: CD-1 mice
Description: Anaesthetised female CD-1 mice (18-22 g) were inoculated intranasally with approximately 10^6 cfus of S. pneumoniae ATCC6301 prepared from a fresh overnight culture by placing 50 μl of inoculum on the nares and allowing the mice to inhale. Compounds are administered as indicated at 24, 48 and 72 hours post inoculation and the mice monitored for survival for seven or nine days after infection. […] Similarly, when Compound 17 was dosed IV at 30 mg/kg 90% of mice survived at day seven.

Thermodynamic solubility = assay type: physicochemical; details: aqueous buffer, thermodynamic from solid; pH 7.4, HEPES buffer, 24 hours shaking at room temperature
Description: In a 1.5 mL eppendorf tube, approximately 2 mg of compound is resuspended in a volume of HEPES buffer pH 7.4 to achieve a 5 mg/mL suspension. The tubes are placed on an orbital shaker at room temperature and following shaking for 24 hours the tubes are spun at 1400 rpm in a bench top centrifuge to pellet the undissolved compound. Duplicate 150 μL aliquots of the supernatant are then transferred into two ultracentrifuge tubes and spun at 357440 g for 4 hours at 20° C. 50 μL of the supernatant from each tube is then diluted with 100 μL of methanol and analysed by HPLC or LCMS to determine the concentration of compound in solution by comparing to a standard curve. The thermodynamic solubility of representative Compounds 19, 123, 134 and 153 were tested and determined to be highly soluble, at ≧2 mg/mL, at pH 7.4.

Microsomal stability = assay type: in vitro ADME; details: pH 7.4; mouse liver microsomes; major metabolite the parent alcohol
Description: In a 96 well polypropylene plate, 10 μM compound is prepared in 100 mM KPO4 buffer pH 7.4, 5 mM MgCl2, 25 μg/ml Alamethicin, 1 mg/ml (protein) liver microsomes (mouse) and a final DMSO concentration of 0.1% in 100 μl in duplicate. The plate is pre-incubated at 37° C. for 10 minutes after which reactions are initiated by the addition of NADPH and UDPGA to a final concentration of 1 mM and 5 mM respectively. Reactions are incubated at 37° C. and terminated by the addition of 100 μl DMSO at 0, 10, 30 and 60 minutes. Samples of 100 μl are withdrawn and added to 50 μl ice cold methanol and mixed on an orbital shaker for 10 minutes to precipitate the proteins. The samples are then centrifuged at 4000 rpm and 10° C. for 30 minutes and supernatants are analysed by LCMS. The T1/2 and clearance are determined by linear regression from the peak areas.

S. aureus (ATCC 29213) = experiment: Antibacterial activity MIC, S. aureus; assay type: cell-based; details: Staphylococcus aureus, ATCC29213
S. pyogenes (ATCC 51339) = experiment: Antibacterial activity MIC, S. pyogenes; assay type: cell-based; details: Streptococcus pyogenes, ATCC51339
[2] = test system: H. influenzae (ATCC 49247); experiment: Antibacterial activity MIC, H. influenzae; assay type: cell-based; details: Haemophilus influenzae, ATCC49247

Structure (SMILES): CCNC(=O)Nc1nc2cc(-c3cnc(C(C)(C)O)nc3)cc(-c3ccccn3)c2s1 [Compound 1, 1-ethyl-3-[5-[2-(1-hydroxy-1-methyl-ethyl)pyrimidin-5-yl]-7-(2-pyridyl)-1,3-benzothiazol-2-yl]urea]
AUC ([1]; dose 1 mg/kg): 3100 ng·h/mL
clearance ([1]; dose 1 mg/kg): 4.3 mL/min/kg
half-life ([1]; dose 1 mg/kg): 3.38 h
mice surviving (S. pneumoniae ATCC6301; dosed IV at 10 mg/kg, at seven or nine days): 80%

Structure (SMILES): CCNC(=O)Nc1nc2cc(-c3cnc(C(C)O)nc3)cc(-c3ccccn3)c2s1 (stereo not shown) [Compound 17, 1-ethyl-3-[5-[2-(1-hydroxyethyl)pyrimidin-5-yl]-7-(2-pyridyl)-1,3-benzothiazol-2-yl]urea]
AUC ([1]; dose 3 mg/kg): 4000 ng·h/mL
clearance ([1]; dose 3 mg/kg): 12 mL/min/kg
half-life ([1]; dose 3 mg/kg): 1.78 h
mice survived (S. pneumoniae ATCC6301; dosed IV at 30 mg/kg, at day seven): 90%

solubility thermodynamic at 24 h (Thermodynamic solubility): ≥ 2000 µg/mL
half-life at 10 μM (Microsomal stability): < 0.333 h
Structure (SMILES): CCNC(=O)Nc1nc2cc(-c3cnc(C(C)OC(=O)CCC(=O)O)nc3)cc(-c3ccccn3)c2s1 (stereo not shown) [Compound 19, 4-[1-[5-[2-(ethylcarbamoylamino)-7-(2-pyridyl)-1,3-benzothiazol-5-yl]pyrimidin-2-yl]ethoxy]-4-oxo-butanoic acid]

AUC ([1]; dose 1 mg/kg): 1130 ng·h/mL
clearance ([1]; dose 1 mg/kg): 13 mL/min/kg
half-life ([1]; dose 1 mg/kg): 2.63 h
Structure (SMILES): CCNC(=O)Nc1nc2cc(-c3ccc(C(C)(C)O)nc3)cc(-c3ccccn3)c2s1 [Compound 27, 1-ethyl-3-[5-[6-(1-hydroxy-1-methyl-ethyl)-3-pyridyl]-7-(2-pyridyl)-1,3-benzothiazol-2-yl]urea]

Structure (SMILES): CCNC(=O)Nc1nc2cc(-c3cnc(C(C)(C)O)nc3)cc(-c3nccc(N4CCN(CC)CC4)n3)c2s1 [Compound 79, 1-ethyl-3-[7-[4-(4-ethylpiperazin-1-yl)pyrimidin-2-yl]-5-[2-(1-hydroxy-1-methyl-ethyl)pyrimidin-5-yl]-1,3-benzothiazol-2-yl]urea]
MIC (S. aureus (ATCC 29213)): 2 µg/mL (≈ 3.65 µM)
MIC (S. pyogenes (ATCC 51339)): 2 µg/mL (≈ 3.65 µM)

Structure (SMILES): CCNC(=O)Nc1nc2cc(-c3cnc(N4CCC(C)(C(=O)O)CC4)nc3)cc(-c3ccc(C(C)(C)O)cn3)c2s1 [Compound 99, 1-[5-[2-(ethylcarbamoylamino)-7-[5-(1-hydroxy-1-methyl-ethyl)-2-pyridyl]-1,3-benzothiazol-5-yl]pyrimidin-2-yl]-4-methyl-piperidine-4-carboxylic acid]
MIC (S. aureus (ATCC 29213)): 2 µg/mL (≈ 3.47 µM)
MIC (S. pyogenes (ATCC 51339)): ≤ 1 µg/mL
MIC [2]: ≤ 2 µg/mL

solubility thermodynamic at 24 h (Thermodynamic solubility): ≥ 2000 µg/mL
half-life at 10 μM (Microsomal stability): < 0.333 h
Structure (SMILES): CCNC(=O)Nc1nc2cc(-c3cnc(C4(OC(=O)CCC(=O)O)COC4)nc3)cc(-c3ccccn3)c2s1 [Compound 123, 4-[3-[5-[2-(ethylcarbamoylamino)-7-(2-pyridyl)-1,3-benzothiazol-5-yl]pyrimidin-2-yl]oxetan-3-yl]oxy-4-oxo-butanoic acid]

half-life at 10 μM (Microsomal stability): < 0.333 h
Structure (SMILES): CCNC(=O)Nc1nc2cc(-c3cnc([C@H](C)OC(=O)CCC(=O)O)nc3)cc(-c3ccccn3)c2s1 [Compound 133, 4-[(1S)-1-[5-[2-(ethylcarbamoylamino)-7-(2-pyridyl)-1,3-benzothiazol-5-yl]pyrimidin-2-yl]ethoxy]-4-oxo-butanoic acid]

solubility thermodynamic at 24 h (Thermodynamic solubility): ≥ 2000 µg/mL
half-life at 10 μM (Microsomal stability): < 0.333 h
Structure (SMILES): CCNC(=O)Nc1nc2cc(-c3cnc([C@@H](C)OC(=O)CCC(=O)O)nc3)cc(-c3ccccn3)c2s1 [Compound 134, 4-[(1R)-1-[5-[2-(ethylcarbamoylamino)-7-(2-pyridyl)-1,3-benzothiazol-5-yl]pyrimidin-2-yl]ethoxy]-4-oxo-butanoic acid]

solubility thermodynamic at 24 h (Thermodynamic solubility): ≥ 2000 µg/mL
Structure (SMILES): CCNC(=O)Nc1nc2cc(-c3cnc([C@H](C)OP(=O)(O)O)nc3)cc(-c3ccccn3)c2s1 [Compound 153, [(1S)-1-[5-[2-(ethylcarbamoylamino)-7-(2-pyridyl)-1,3-benzothiazol-5-yl]pyrimidin-2-yl]ethyl]dihydrogen phosphate]

AUC ([1]; dose 3 mg/kg): 2000 ng·h/mL
clearance ([1]; dose 3 mg/kg): 25 mL/min/kg
half-life ([1]; dose 3 mg/kg): 1.35 h
Structure (SMILES): CCNC(=O)Nc1nc2cc(-c3cnc(CO)nc3)cc(-c3ccccn3)c2s1 [Compound A, 1-Ethyl-3-[5-[2-(hydroxymethyl)pyrimidin-5-yl]-7-(2-pyridyl)-1,3-benzothiazol-2-yl]urea, reference compound]

AUC ([1]; dose 3 mg/kg): 1800 ng·h/mL
clearance ([1]; dose 3 mg/kg): 28 mL/min/kg
half-life ([1]; dose 3 mg/kg): 1 h
Structure (SMILES): CCNC(=O)Nc1nc2cc(-c3ccc(CO)nc3)cc(-c3ccccn3)c2s1 [Compound B, 1-Ethyl-3-[5-[6-(hydroxymethyl)-3-pyridyl]-7-(2-pyridyl)-1,3-benzothiazol-2-yl]urea, reference compound]

Structure (SMILES): CC(=O)NC[C@H]1CN(c2ccc(N3CCOCC3)c(F)c2)C(=O)O1 [Linezolid, reference compound]
survival of mice (in words) (S. pneumoniae ATCC6301; dosed with 10 mg/kg): dead by day six

Source: patent publication US8906902B2, “Antibacterial compounds” (Biota Europe Ltd., priority 2012, dated 2014)
